Source: patent publication US20170008888A1 (KYORIN PHARMACEUTICAL CO., LTD., priority 2014, published 2017)

Columns and labels:
ERK5 = target: T1, ERK5 (Homo sapiens, UniProt Q13164); assay: Probe-based (AX9989 acyl phosphate ATP probe) kinase profiling in Jurkat lysate: ERK5; format: binding
T1 construct: screened for activity against several kinases in Jurkat cells; endogenous in cells; host or cells: Jurkat cell lysate
Outline: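 ERK5 IC50 values came from percent inhibition at the screening concentration, measured as loss of LC/MS signal of probe-labelled active-site peptides. Compound was added for 15 min at room temperature to Jurkat lysate (5 mg/ml, 20 mM MnCl2) before labelling with AX9989 ATP acyl phosphate probe at 5 μM.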

AurA = target: T2, AurA (Homo sapiens, UniProt O14965); assay: Probe-based (AX9989) kinase profiling in Jurkat lysate: AurA; format: binding; conditions: screening concentration 10.0 μM; read-out: Kinase inhibition % at indicated screening concentration: AurA
T2 construct: screened for activity against several kinases in Jurkat cells; endogenous in cells; host or cells: Jurkat cell lysate
T2 sequence (O14965 1-403): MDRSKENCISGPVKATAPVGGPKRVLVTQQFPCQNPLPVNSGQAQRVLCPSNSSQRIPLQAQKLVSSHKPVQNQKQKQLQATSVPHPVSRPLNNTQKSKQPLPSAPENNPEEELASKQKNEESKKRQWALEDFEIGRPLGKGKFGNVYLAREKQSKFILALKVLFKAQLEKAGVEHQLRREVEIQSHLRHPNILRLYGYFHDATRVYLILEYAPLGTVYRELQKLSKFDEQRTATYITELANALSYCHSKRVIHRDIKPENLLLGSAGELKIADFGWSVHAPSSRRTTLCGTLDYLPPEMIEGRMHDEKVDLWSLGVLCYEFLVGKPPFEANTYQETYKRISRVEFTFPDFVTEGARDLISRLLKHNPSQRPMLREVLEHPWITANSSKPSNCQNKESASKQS
Outline: (§1)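 Read-out: LC/MS intensity of desthiobiotinylated kinase active-site peptides, percent inhibition normalized to no-compound lysate. Jurkat lysate with 20 mM MnCl2 received compound for 15 min at room temperature, then 5 μM AX9989 probe; duplicates.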

AurB or AurC = assay: Probe-based (AX9989) kinase profiling in Jurkat lysate: AurB or AurC; format: binding; conditions: screening concentration 10.0 μM
Outline: as §1

JAK1 = target: T3, JAK1 (Homo sapiens, UniProt P23458); assay: Probe-based (AX9989) kinase profiling in Jurkat lysate: JAK1; format: binding; conditions: screening concentration 10.0 μM; read-out: Kinase inhibition % at indicated screening concentration: JAK1
T3 construct: screened for activity against several kinases in Jurkat cells; endogenous in cells; host or cells: Jurkat cell lysate
Outline: as §1

AMPKa1 or AMPKa2 = assay: Probe-based (AX9989) kinase profiling in Jurkat lysate: AMPKa1 or AMPKa2; format: binding; conditions: screening concentration 10.0 μM
Outline: as §1

TAO2 = target: T4, TAO2 (Homo sapiens, UniProt Q9UL54); assay: Probe-based (AX9989) kinase profiling in Jurkat lysate: TAO2; format: binding; conditions: screening concentration 10.0 μM; read-out: Kinase inhibition % at indicated screening concentration: TAO2
T4 construct: screened for activity against several kinases in Jurkat cells; endogenous in cells; host or cells: Jurkat cell lysate
T4 sequence (Q9UL54 1-1235): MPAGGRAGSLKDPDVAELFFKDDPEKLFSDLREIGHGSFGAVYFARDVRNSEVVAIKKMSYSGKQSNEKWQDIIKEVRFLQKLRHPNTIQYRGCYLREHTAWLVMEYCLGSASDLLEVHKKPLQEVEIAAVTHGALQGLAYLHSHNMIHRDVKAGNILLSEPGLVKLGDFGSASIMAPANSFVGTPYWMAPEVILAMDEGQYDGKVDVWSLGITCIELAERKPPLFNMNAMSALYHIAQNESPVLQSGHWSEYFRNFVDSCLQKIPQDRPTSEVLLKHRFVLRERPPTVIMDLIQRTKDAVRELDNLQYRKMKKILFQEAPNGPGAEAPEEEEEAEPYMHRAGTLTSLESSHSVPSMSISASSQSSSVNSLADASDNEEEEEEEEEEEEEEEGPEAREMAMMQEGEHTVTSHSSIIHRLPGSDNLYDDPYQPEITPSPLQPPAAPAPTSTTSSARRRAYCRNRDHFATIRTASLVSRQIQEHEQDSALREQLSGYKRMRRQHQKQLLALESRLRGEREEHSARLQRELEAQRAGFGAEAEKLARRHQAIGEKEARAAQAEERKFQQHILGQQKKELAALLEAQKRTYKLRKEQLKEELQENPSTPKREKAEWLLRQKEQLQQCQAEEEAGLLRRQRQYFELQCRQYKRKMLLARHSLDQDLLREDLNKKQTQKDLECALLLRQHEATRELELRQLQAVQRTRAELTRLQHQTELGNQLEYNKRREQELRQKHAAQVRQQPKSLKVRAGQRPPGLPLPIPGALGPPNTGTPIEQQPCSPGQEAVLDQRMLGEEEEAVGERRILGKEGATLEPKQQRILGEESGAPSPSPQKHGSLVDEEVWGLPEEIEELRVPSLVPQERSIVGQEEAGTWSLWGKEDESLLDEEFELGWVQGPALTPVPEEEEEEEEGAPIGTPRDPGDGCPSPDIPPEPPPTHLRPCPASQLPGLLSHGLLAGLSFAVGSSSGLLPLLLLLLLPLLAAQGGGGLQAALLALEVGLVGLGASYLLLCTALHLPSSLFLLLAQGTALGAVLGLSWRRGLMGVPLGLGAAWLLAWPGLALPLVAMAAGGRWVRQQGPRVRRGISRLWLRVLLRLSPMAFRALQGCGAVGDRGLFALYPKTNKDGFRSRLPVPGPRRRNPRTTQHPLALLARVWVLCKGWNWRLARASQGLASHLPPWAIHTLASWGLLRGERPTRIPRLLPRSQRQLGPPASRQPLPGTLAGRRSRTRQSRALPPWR
Outline: as §1

ACK = target: T5, ACK (Homo sapiens, UniProt Q07912); assay: Probe-based (AX9989) kinase profiling in Jurkat lysate: ACK; format: binding; conditions: screening concentration 10.0 μM; read-out: Kinase inhibition % at indicated screening concentration: ACK
T5 construct: screened for activity against several kinases in Jurkat cells; endogenous in cells; host or cells: Jurkat cell lysate
Outline: as §1

ABL or ARG = assay: Probe-based (AX9989) kinase profiling in Jurkat lysate: ABL or ARG; format: binding; conditions: screening concentration 10.0 μM
Outline: as §1

MV-4-11 cells [1] = assay: MV-4-11 proliferation EC50 assay (CellTiter-Glo); format: cell-based; conditions: Homo sapiens, MV4-11, 48 h, read-out: MV-4-11 proliferation EC50, ave. ± S.D.
Protocol: Human biphenotypic B myelomonocytic leukemia MV-4-11 cells (ATCC, Manassas, Va.) were treated with test compounds at 2e5 cells/ml in IMDM medium containing 10% (v/v) FBS (Life Technologies, Grand Island, N.Y.) and 1×Pen/Strep Amphotericin B (Lonza, Allendale, N.J.). Compounds were tested at 25 μM down by ⅓ in a 9 point serial dilution series. Cells were incubated for 48 h at 37° C. in a humidified atmosphere at 5% CO2. MV-4-11 cell proliferation was then indirectly determined via cellular ATP content using the CellTiter-Glo® Luminescent Cell Viability Assay (Promega, Madison, Wis.) as per the manufacturer's instructions. Briefly, experimental plates were equilibrated at room temperature for 30 minutes. An equal volume of CellTiter-Glo® reagent was added to each well and incubated for 15 minutes at room temperature. Luminescent signal was read using the Wallac 1420 Victor^2 multilabel microplate reader (Perkin Elmer, Waltham, Mass.). EC50 values were determined using GraphPad Prism software v5.04.

MV-4-11 cells [2] = assay: Combination study with Ara-C in MV-4-11 cells (CellTiter-Glo); format: cell-based, human; conditions: 48 h
Protocol: Human biphenotypic B myelomonocytic leukemia MV-4-11 cells (ATCC, Manassas, Va.) treated with test compounds at 2e5 cells/ml in IMDM medium containing 10% (v/v) FBS (Life Technologies, Grand Island, N.Y.) and 1×Pen/Strep Amphotericin B (Lonza, Allendale, N.J.). The final concentration of a test compound was set at a concentration previously determined to be its EC50 and Y3 EC50 values, while the combination test drug (Arabinofuranosyl Cytidine (Ara-C))(Sigma, St. Louis, Mo.) was assayed in serially-diluted 9-point concentrations against this background. Cells were treated for 48 h at 37° C. in a humidified atmosphere at 5% CO2. Cell viability was then determined indirectly via ATP content using the CellTiter-Glo® luminescent cell viability assay (Promega, Madison, Wis.) as per the manufacturer's instructions as follows: Briefly, experimental plates were equilibrated at room temperature for 30 minutes. An equal volume of CellTiter-Glo reagent was added to each well and incubated for 15 minutes at room temperature. Luminescent signal was read using the Wallac 1420 Victor2 multilabel microplate reader (Perkin Elmer, Waltham, Mass.).

T1 sequence (Q13164 whole entry): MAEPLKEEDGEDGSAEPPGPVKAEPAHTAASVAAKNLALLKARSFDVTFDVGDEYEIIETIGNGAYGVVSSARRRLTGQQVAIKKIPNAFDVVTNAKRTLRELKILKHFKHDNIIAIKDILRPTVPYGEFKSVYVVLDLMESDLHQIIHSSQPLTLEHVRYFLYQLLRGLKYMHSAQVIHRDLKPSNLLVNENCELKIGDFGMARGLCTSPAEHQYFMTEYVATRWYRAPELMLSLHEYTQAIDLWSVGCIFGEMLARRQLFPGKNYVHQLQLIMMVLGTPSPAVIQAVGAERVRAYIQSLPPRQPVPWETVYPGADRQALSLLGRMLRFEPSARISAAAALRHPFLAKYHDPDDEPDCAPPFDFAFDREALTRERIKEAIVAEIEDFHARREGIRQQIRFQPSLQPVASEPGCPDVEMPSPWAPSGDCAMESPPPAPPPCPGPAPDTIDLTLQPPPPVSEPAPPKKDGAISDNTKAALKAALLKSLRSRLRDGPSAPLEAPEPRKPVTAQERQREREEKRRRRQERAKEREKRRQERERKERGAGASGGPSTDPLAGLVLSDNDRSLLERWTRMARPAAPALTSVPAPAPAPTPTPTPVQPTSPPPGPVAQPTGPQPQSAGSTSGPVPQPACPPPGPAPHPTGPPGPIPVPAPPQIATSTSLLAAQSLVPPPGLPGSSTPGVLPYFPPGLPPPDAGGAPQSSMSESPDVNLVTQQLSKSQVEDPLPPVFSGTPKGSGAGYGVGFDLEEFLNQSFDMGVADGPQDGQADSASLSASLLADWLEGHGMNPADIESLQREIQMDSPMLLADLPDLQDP
T3 sequence (P23458 whole entry): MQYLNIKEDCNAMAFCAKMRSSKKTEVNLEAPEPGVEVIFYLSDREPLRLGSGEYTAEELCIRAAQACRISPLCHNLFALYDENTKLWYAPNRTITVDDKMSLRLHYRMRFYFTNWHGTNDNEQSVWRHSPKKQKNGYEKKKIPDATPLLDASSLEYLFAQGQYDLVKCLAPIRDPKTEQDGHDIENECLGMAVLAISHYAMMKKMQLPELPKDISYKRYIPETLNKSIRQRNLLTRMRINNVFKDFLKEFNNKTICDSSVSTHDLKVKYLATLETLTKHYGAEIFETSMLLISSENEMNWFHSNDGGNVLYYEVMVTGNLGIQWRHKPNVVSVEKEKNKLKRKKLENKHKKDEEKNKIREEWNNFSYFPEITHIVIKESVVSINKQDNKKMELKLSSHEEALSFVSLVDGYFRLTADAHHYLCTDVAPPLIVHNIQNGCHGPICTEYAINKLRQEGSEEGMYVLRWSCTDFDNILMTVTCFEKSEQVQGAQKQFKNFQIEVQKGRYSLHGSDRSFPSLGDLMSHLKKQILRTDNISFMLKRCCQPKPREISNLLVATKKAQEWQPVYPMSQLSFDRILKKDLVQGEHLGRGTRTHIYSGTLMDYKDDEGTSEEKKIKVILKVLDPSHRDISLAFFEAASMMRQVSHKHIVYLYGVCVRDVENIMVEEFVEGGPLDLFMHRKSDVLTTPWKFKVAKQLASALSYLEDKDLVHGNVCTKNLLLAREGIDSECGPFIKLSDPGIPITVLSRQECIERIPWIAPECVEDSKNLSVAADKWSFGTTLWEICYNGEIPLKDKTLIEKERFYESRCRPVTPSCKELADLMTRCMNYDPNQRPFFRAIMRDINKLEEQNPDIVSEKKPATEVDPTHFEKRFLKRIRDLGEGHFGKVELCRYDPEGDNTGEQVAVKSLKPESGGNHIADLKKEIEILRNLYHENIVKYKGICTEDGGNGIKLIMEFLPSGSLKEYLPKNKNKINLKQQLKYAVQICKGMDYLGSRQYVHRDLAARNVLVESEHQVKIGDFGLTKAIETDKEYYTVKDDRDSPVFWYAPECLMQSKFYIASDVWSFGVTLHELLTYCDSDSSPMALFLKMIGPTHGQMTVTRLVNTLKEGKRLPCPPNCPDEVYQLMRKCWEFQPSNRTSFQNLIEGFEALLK
T5 sequence (Q07912 whole entry): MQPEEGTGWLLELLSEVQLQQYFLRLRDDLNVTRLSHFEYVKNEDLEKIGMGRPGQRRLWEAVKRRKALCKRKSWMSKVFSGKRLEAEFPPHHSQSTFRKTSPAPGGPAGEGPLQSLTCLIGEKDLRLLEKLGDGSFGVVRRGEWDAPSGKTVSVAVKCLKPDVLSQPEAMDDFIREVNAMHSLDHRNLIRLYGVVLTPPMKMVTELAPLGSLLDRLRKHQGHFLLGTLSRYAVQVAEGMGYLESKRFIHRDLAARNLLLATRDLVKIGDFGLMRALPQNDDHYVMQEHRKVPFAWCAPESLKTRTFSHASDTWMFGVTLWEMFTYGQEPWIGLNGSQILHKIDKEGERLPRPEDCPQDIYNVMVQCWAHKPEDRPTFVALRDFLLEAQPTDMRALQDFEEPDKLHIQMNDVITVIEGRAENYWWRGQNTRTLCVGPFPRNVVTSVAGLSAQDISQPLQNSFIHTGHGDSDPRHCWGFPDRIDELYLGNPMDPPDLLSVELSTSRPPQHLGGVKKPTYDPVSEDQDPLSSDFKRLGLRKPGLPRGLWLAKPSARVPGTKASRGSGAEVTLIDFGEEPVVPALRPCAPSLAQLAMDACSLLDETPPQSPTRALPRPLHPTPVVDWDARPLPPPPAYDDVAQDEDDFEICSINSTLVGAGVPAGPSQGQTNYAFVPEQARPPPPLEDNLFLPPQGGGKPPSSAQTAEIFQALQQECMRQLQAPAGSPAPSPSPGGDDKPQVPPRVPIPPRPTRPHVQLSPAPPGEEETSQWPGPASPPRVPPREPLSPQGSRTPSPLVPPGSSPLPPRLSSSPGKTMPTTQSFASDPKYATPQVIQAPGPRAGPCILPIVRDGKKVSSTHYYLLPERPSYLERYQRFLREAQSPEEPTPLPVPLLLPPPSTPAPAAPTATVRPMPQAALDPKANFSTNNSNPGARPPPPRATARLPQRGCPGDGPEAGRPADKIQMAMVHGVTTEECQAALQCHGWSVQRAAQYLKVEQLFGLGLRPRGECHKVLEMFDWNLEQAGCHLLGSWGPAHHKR

Row | Compound | IC50 (ERK5; calculated from percent inhibition of AX9989 labeling and the screening concentration, Jurkat lysate) | inhibition at 10 µM (ERK5; screening concentration 10.0 μM, read-out: Kinase inhibition % at indicated screening concentration: ERK5) | inhibition at 10 µM (AurA) | Kinase inhibition % at indicated screening concentration: AurB or AurC (AurB or AurC) | inhibition at 10 µM (JAK1) | Kinase inhibition % at indicated screening concentration: AMPKa1 or AMPKa2 (AMPKa1 or AMPKa2) | inhibition at 10 µM (TAO2) | inhibition at 10 µM (ACK) | Kinase inhibition % at indicated screening concentration: ABL or ARG (ABL or ARG) | EC50 (MV-4-11 cells [1]) | EC50 (MV-4-11 cells [2]; read-out: EC50 (μM) of Ara-C in combination with a fixed concentration of compound 61 at EC50) | EC50 (MV-4-11 cells [2]; read-out: EC50 (μM) of Ara-C in combination with a fixed concentration of compound 61 at ⅓ EC50) | EC50 (MV-4-11 cells [2]; read-out: EC50 (μM) of Ara-C, compound 61 not present)
1 | CN1C(=O)c2ccccc2N(C)c2cc(Nc3ccc(N4CCC(O)CC4)cn3)ncc21 [Compound 4] | > 500 nM | 75 to 90% | > 90% | A (A>90%) | 50 to 75% | C (C is >50% to ≦75%) | 50 to 75% | 75 to 90% | C (C is >50% to ≦75%) | 60 nM | – | – | –
2 | Nc1ccn([C@@H]2O[C@H](CO)[C@@H](O)[C@@H]2O)c(=O)n1 [Ara-C] | – | – | – | – | – | – | – | – | – | – | 0.108 µM | 0.265 µM | 0.353 µM
